Target: KRas (Homo sapiens, UniProt P01116, G12C)
Assay: KRas degradation in NCI-H2030 cells by Western blot, normalized to GAPDH (data of Table 14)
Type: cell-based
Set-up: host or cells: NCI-H2030
Settings: for Percent Degradation at Indicated Concentration (μM): H2030; for Dmax: NCI-H2030
Procedure: Cell Lines, Antibodies, and Reagents. NCI-H2030 (CRL-5914) and SW1573 (CRL-2170) cells were purchased from ATCC. Both cell lines are homozygous for the G12C mutation in KRas. NCI-H2030 cells were cultured in RPMI-1640 medium containing 1% penicillin-streptomycin and 10% fetal bovine serum (FBS). SW1573 cells were cultured in DMEM containing 1% penicillin-streptomycin and 10% FBS. The KRas detection antibody (Cat. No. LS-C175665) was purchased from LifeSpan Biosciences and was used at a dilution of 1:2000. GAPDH was detected using an antibody purchased from Cell Signaling Technology (Cat. No. 5174) and was diluted 1:3000. Secondary anti-mouse and anti-rabbit detection antibodies were purchased from Cell Signaling Technology (Cat. Nos. 7076 and 7074, respectively).
Compound Treatment and Western Blotting of the Data of Table 14. Either NCI-H2030 or SW1573 cells were plated in 12-well plates and allowed to adhere overnight at 37° C. in an incubator containing 5% CO2. The following day, the medium was replaced with the appropriate medium lacking FBS to induce starvation. Cells were returned to the incubator for an additional 24 hours following media exchange. […] Cells were treated with VHL-based compounds for 24 hours and all other compounds for 72 hours. Following treatment, cells were lysed in RIPA buffer (Thermo Fisher Cat. No. 89900) containing phosphatase (Thermo Fisher Cat. No. 1861277) and protease (Thermo Fisher Cat. No. 78429) inhibitor cocktails. Lysates were cleared at 13,000 rpm for 15 minutes and supernatants were assayed for total protein concentration using the Pierce BCA assay system (Thermo Fisher Cat. No. 23225). For each sample, 10 μg total protein was resolved on a 12% Bis-Tris gel and then transferred to a nitrocellulose membrane. After blocking in 3% BSA in TBST (Tris-buffered Saline with 0.1% Tween-20) for 1 hour at room temperature, membranes were probed with the primary antibody (LS Bio Cat. No. LS-C175665) overnight at 4° C. After incubation with the secondary antibody, the following day membranes were visualized using the SuperSignal™ West Femto substrate (Thermo Fisher Cat. No. 34095). The KRas signal in each lane was normalized to GAPDH and percent degradation was either estimated as less than 25% by visual inspection (C in Table 13) or quantitated relative to the DMSO control lane using BIO-RAD Image Lab 5.2.1, and all data was plotted using GraphPad PRISM 6.07.
DC50 is the half-maximal degradation concentration—i.e., the concentration at which 50% degradation is observed. DMax is the maximum degradation efficacy is achieved—i.e., the maximal degradation observed) degradation data.

Percent Degradation at Indicated Concentration (μM) (0.3 μM)	Percent Degradation at Indicated Concentration (μM) (1 μM)	Percent Degradation at Indicated Concentration (μM) (3 μM)	Dmax [%]	SMILES
C (Percent Degradation: C ≤ 35)	C (Percent Degradation: C ≤ 35)	C (Percent Degradation: C ≤ 35)	≤ 35	C=CC(=O)N1CCN(c2nc(NCCC(=O)N(C)CCOc3cc(-c4scnc4C)ccc3CNC(=O)[C@@H]3C[C@@H](O)CN3C(=O)[C@H](c3cc(C)no3)C(C)C)nc3c(F)c(-c4c(O)cccc4F)c(Cl)cc23)CC1 (atropisomer, axis not shown) [compound 127, (25,4R)-N-(2-(2-(3-(((S)-4-(4-acryloylpiperazin-1-yl)-6-chloro-8-fluoro-7-(2-fluoro-6-hydroxyphenyl)quinazolin-2-yl)amino)-N-methylpropanamido)ethoxy)-4-(4-methylthiazol-5-yl)benzyl)-4-hydroxy-1-((S)-3-methyl-2-(3-methylisoxazol-5-yl)butanoyl)pyrrolidine-2-carboxamide]
C (Percent Degradation: C ≤ 35)	C (Percent Degradation: C ≤ 35)	C (Percent Degradation: C ≤ 35)	≤ 35	C=CC(=O)N1CCN(c2nc(NCCC(=O)N(C)CCOCCOc3cc(-c4scnc4C)ccc3CNC(=O)[C@@H]3C[C@@H](O)CN3C(=O)[C@@H](c3cc(C)no3)C(C)C)nc3c(F)c(-c4c(O)cccc4F)c(Cl)cc23)CC1 (atropisomer, axis not shown) [compound 128, (25,4R)-N-(2-(2-(2-(3-(((S)-4-(4-acryloylpiperazin-1-yl)-6-chloro-8-fluoro-7-(2-fluoro-6-hydroxyphenyl)quinazolin-2-yl)amino)-N-methylpropanamido)ethoxy)ethoxy)-4-(4-methylthiazol-5-yl)benzyl)-4-hydroxy-1-((R)-3-methyl-2-(3-methylisoxazol-5-yl)butanoyl)pyrrolidine-2-carboxamide]
C (Percent Degradation: C ≤ 35)	C (Percent Degradation: C ≤ 35)	C (Percent Degradation: C ≤ 35)	≤ 35	C=CC(=O)N1CCN(c2nc(NCCC(=O)N(C)CCOCCOCCOc3cc(-c4scnc4C)ccc3CNC(=O)[C@@H]3C[C@@H](O)CN3C(=O)[C@H](c3cc(C)no3)C(C)C)nc3c(F)c(-c4c(O)cccc4F)c(Cl)cc23)CC1 (atropisomer, axis not shown) [compound 130, (25,4R)-N-(2-(2-(2-(2-(3-(((S)-4-(4-acryloylpiperazin-1-yl)-6-chloro-8-fluoro-7-(2-fluoro-6-hydroxyphenyl)quinazolin-2-yl)amino)-N-methylpropanamido)ethoxy)ethoxy)ethoxy)-4-(4-methylthiazol-5-yl)benzyl)-4-hydroxy-1-((S)-3-methyl-2-(3-methylisoxazol-5-yl)butanoyl)pyrrolidine-2-carboxamide]
C (Percent Degradation: C ≤ 35)	C (Percent Degradation: C ≤ 35)	C (Percent Degradation: C ≤ 35)	≤ 35	C=CC(=O)N1CCN(c2nc(NCCC(=O)N(C)CCOCCOCCOCCOc3cc(-c4scnc4C)ccc3CNC(=O)[C@@H]3C[C@@H](O)CN3C(=O)[C@H](c3cc(C)no3)C(C)C)nc3c(F)c(-c4c(O)cccc4F)c(Cl)cc23)CC1 (atropisomer, axis not shown) [compound 131, (2S,4R)-N-(2-((15-(((S)-4-(4-acryloylpiperazin-1-yl)-6-chloro-8-fluoro-7-(2-fluoro-6-hydroxyphenyl)quinazolin-2-yl)amino)-12-methyl-13-oxo-3,6,9-trioxa-12-azapentadecyl)oxy)-4-(4-methylthiazol-5-yl)benzyl)-4-hydroxy-1-((S)-3-methyl-2-(3-methylisoxazol-5-yl)butanoyl)pyrrolidine-2-carboxamide]
C (Percent Degradation: C ≤ 35)	C (Percent Degradation: C ≤ 35)	C (Percent Degradation: C ≤ 35)	≤ 35	C=CC(=O)N1CCN(c2nc(NCCC(=O)N(C)CCOCCOCCOCCOCCOc3cc(-c4scnc4C)ccc3CNC(=O)[C@@H]3C[C@@H](O)CN3C(=O)[C@H](c3cc(C)no3)C(C)C)nc3c(F)c(-c4c(O)cccc4F)c(Cl)cc23)CC1 (atropisomer, axis not shown) [compound 132, (25,4R)-N-(2-((18-(((S)-4-(4-acryloylpiperazin-1-yl)-6-chloro-8-fluoro-7-(2-fluoro-6-hydroxyphenyl)quinazolin-2-yl)amino)-15-methyl-16-oxo-3,6,9,12-tetraoxa-15-azaoctadecyl)oxy)-4-(4-methylthiazol-5-yl)benzyl)-4-hydroxy-1-((S)-3-methyl-2-(3-methylisoxazol-5-yl)butanoyl)pyrrolidine-2-carboxamide]
–	–	C (Percent Degradation: C ≤ 35)	–	C=CC(=O)N1CCN(c2nc(NCCC(=O)N(C)CCOCC(=O)N[C@H](C(=O)N3C[C@H](O)C[C@H]3C(=O)N[C@@H](C)c3ccc(-c4scnc4C)cc3)C(C)(C)C)nc3c(F)c(-c4c(O)cccc4F)c(Cl)cc23)CC1 (atropisomer, axis not shown) [compound 205, (2S,4R)-1-((S)-2-(2-(2-(3-(((S)-4-(4-acryloylpiperazin-1-yl)-6-chloro-8-fluoro-7-(2-fluoro-6-hydroxyphenyl)quinazolin-2-yl)amino)-N-methylpropanamido)ethoxy)acetamido)-3,3-dimethylbutanoyl)-4-hydroxy-N-((S)-1-(4-(4-methylthiazol-5-yl)phenyl)ethyl)pyrrolidine-2-carboxamide]
C (Percent Degradation: C ≤ 35)	C (Percent Degradation: C ≤ 35)	C (Percent Degradation: C ≤ 35)	≤ 35	C=CC(=O)N1CCN(c2nc(NCCC(=O)N(C)CCOCC(=O)N[C@H](C(=O)N3C[C@H](O)C[C@H]3C(=O)N[C@@H](C)c3ccc(-c4scnc4C)cc3)C(C)(C)C)nc3c(F)c(-c4c(O)cccc4F)c(Cl)cc23)CC1 (atropisomer, axis not shown) [compound 206, (2S,4R)-1-((S)-2-(2-(2-(3-(((R)-4-(4-acryloylpiperazin-1-yl)-6-chloro-8-fluoro-7-(2-fluoro-6-hydroxyphenyl)quinazolin-2-yl)amino)-N-methylpropanamido)ethoxy)acetamido)-3,3-dimethylbutanoyl)-4-hydroxy-N-((S)-1-(4-(4-methylthiazol-5-yl)phenyl)ethyl)pyrrolidine-2-carboxamide]
–	–	C (Percent Degradation: C ≤ 35)	–	C=CC(=O)N1CCN(c2nc(NCCC(=O)N(C)CCOCCOCC(=O)N[C@H](C(=O)N3C[C@H](O)C[C@H]3C(=O)N[C@@H](C)c3ccc(-c4scnc4C)cc3)C(C)(C)C)nc3c(F)c(-c4c(O)cccc4F)c(Cl)cc23)CC1 (atropisomer, axis not shown) [compound 207, (2S,4R)-1-((S)-15-(((S)-4-(4-acryloylpiperazin-1-yl)-6-chloro-8-fluoro-7-(2-fluoro-6-hydroxyphenyl)quinazolin-2-yl)amino)-2-(tert-butyl)-12-methyl-4,13-dioxo-6,9-dioxa-3,12-diazapentadecanoyl)-4-hydroxy-N-((S)-1-(4-(4-methylthiazol-5-yl)phenyl)ethyl)pyrrolidine-2-carboxamide]
C (Percent Degradation: C ≤ 35)	C (Percent Degradation: C ≤ 35)	C (Percent Degradation: C ≤ 35)	≤ 35	C=CC(=O)N1CCN(c2nc(NCCC(=O)N(C)CCOCCOCC(=O)N[C@H](C(=O)N3C[C@H](O)C[C@H]3C(=O)N[C@@H](C)c3ccc(-c4scnc4C)cc3)C(C)(C)C)nc3c(F)c(-c4c(O)cccc4F)c(Cl)cc23)CC1 (atropisomer, axis not shown) [compound 208, (2S,4R)-1-((S)-15-(((R)-4-(4-acryloylpiperazin-1-yl)-6-chloro-8-fluoro-7-(2-fluoro-6-hydroxyphenyl)quinazolin-2-yl)amino)-2-(tert-butyl)-12-methyl-4,13-dioxo-6,9-dioxa-3,12-diazapentadecanoyl)-4-hydroxy-N-((S)-1-(4-(4-methylthiazol-5-yl)phenyl)ethyl)pyrrolidine-2-carboxamide]
